How the values were obtained:
PANC-1 cells = test: Effect of combined agents releasing gemcitabine first (Table 2); conditions: no gemcitabine first
Protocol: (§2) The chemosensitivity assay was performed in a 96-well microtiter plate with 10^4 cells per well and 100 μl of medium, and the components to be tested were supplied in a volume of 100 μl. All components were diluted on the microtiter plates, and the plates were incubated under cell culture conditions for 4 days, except for those tests wherein the ratio between application time and reaction was to be determined. The viability of the cells, including the mitochondrial activity, i.e., the ratio of cell survival rate and cell number, was determined using an MTT assay.
(§3) Combined agents of the invention sequentially releasing CHP and gemcitabine were also tested. […] Agents were used in cell cultures, which agents initially release CHP, followed by gemcitabine after 24 hours and 48 hours, respectively. […] Combined agents were used which released 1 μg/ml gemcitabine, followed by CHP after 12, 24 and 48 hours, respectively.

MDA-MBA231 = test: Cell line screening of CHP anti-proliferation activity (chemosensitivity MTT assay); format: cell-based; conditions: Breast tissue
Protocol: (§1) Unless otherwise stated, cell lines from the American Type Culture Collection (ATCC, Rockville, Md.) were used and cultured to confluence in a monolayer in RPMI-1640 bicarbonate medium (Seromed, Berlin, Germany) in an incubator ([…], 37° C.). The cells were examined for mycoplasma contaminations. The medium included 10% heat-inactivated fetal calf serum (Seromed) and 4 mM glutamine. The cells were cultured and passaged according to standard procedures (0.03% trypsin with 0.02% EDTA, 3 times a week) . The cell number was determined using a TOA Sysmex micro-cell counter (TOA, Tokyo, Japan).

ACHN = test: as above; format: cell-based; conditions: Renal cell lines
Protocol: as §1

Fib2 (PPH) = test: as above; format: cell-based; conditions: Fibroblasts
Protocol: as §1

Calc22 = test: as above; format: cell-based; conditions: Osteoblasts
Protocol: as §1

SW480 (Ccl228) = test: as above; format: cell-based; conditions: Colon cell lines
Protocol: as §1

CR01 = test: as above; format: cell-based; conditions: Carcinoids
Protocol: as §1

PC3 = test: as above; format: cell-based; conditions: Prostate tissue
Protocol: as §1

ASPC1 = test: as above; format: cell-based; conditions: Pancreas cell lines
Protocol: as §1

HOS = test: as above; format: cell-based; conditions: Osteosarcoma tissue
Protocol: as §1

MIAPaCa2 = test: as above; format: cell-based; conditions: Pancreas cell lines
Protocol: as §1

HCT-15 = test: as above; format: cell-based; conditions: Colon cell lines
Protocol: as §1

DLD1 = test: as above; format: cell-based; conditions: Colon cell lines
Protocol: as §1

HT29 = test: as above; format: cell-based; conditions: Colon cell lines
Protocol: as §1

Colo205 = test: as above; format: cell-based; conditions: Colon cell lines
Protocol: as §1

PANC1 = test: as above; format: cell-based; conditions: Pancreas cell lines
Protocol: as §1

Fib3 (PPH) = test: as above; format: cell-based; conditions: Fibroblasts
Protocol: as §1

Colo320DM = test: as above; format: cell-based; conditions: Colon cell lines
Protocol: as §1

WI38 = test: as above; format: cell-based; conditions: Fibroblasts
Protocol: as §1

JVSO = test: as above; format: cell-based; conditions: Melanoma
Protocol: as §1

A498 = test: as above; format: cell-based; conditions: Renal cell lines
Protocol: as §1

BxPC3 [1] = test: as above; format: cell-based; conditions: Pancreas cell lines
Protocol: as §1

MCF-7 = test: as above; format: cell-based; conditions: Breast tissue
Protocol: as §1

T47D = test: as above; format: cell-based; conditions: Breast tissue
Protocol: as §1

B607 = test: as above; format: cell-based; conditions: Melanoma
Protocol: as §1

K562 = test: as above; format: cell-based; conditions: Leukemia cells
Protocol: as §1

A518 = test: as above; format: cell-based; conditions: Melanoma
Protocol: as §1

Me128 = test: as above; format: cell-based; conditions: Melanoma
Protocol: as §1

Capanl = test: as above; format: cell-based; conditions: Pancreas cell lines
Protocol: as §1

SW620(Ccl227) = test: as above; format: cell-based; conditions: Colon cell lines
Protocol: as §1

CR02 = test: as above; format: cell-based; conditions: Carcinoids
Protocol: as §1

BxPC3 [2] = test: Effect of combined agents releasing gemcitabine first (Table 2); conditions: no gemcitabine first
Protocol: as §2, §3

## O=C(O)[C@@H]1C[C@@H](O)CN1 (relative stereo) [CHP, cis-hydroxyproline]
PANC-1 cells; CHP 3 μg/ml
  PANC-1 control: 98.8 ± 4.0
PANC-1 cells; CHP 6.1 μg/ml
  PANC-1 control: 96.0 ± 6.0
PANC-1 cells; CHP 12.5 μg/ml
  PANC-1 control: 90.8 ± 4.1
PANC-1 cells; CHP 25 μg/ml
  PANC-1 control: 95.9 ± 5.1
PANC-1 cells; CHP 50 μg/ml
  PANC-1 control: 94.8 ± 6.4
PANC-1 cells; CHP 100 μg/ml
  PANC-1 control: 95.1 ± 2.3
MDA-MBA231
  Reaction (CHP anti-proliferation activity): resistant
ACHN
  Reaction (CHP anti-proliferation activity): resistant
Fib2 (PPH)
  Reaction (CHP anti-proliferation activity): resistant
Calc22
  Reaction (CHP anti-proliferation activity): +8%
SW480 (Ccl228)
  Reaction (CHP anti-proliferation activity): −58%
CR01
  Reaction (CHP anti-proliferation activity): −35%
PC3
  Reaction (CHP anti-proliferation activity): resistant
ASPC1
  Reaction (CHP anti-proliferation activity): −42%
HOS
  Reaction (CHP anti-proliferation activity): −68%
MIAPaCa2
  Reaction (CHP anti-proliferation activity): −45.7%
HCT-15
  Reaction (CHP anti-proliferation activity): −10%
DLD1
  Reaction (CHP anti-proliferation activity): −19.8%
HT29
  Reaction (CHP anti-proliferation activity): −48%
Colo205
  Reaction (CHP anti-proliferation activity): −66%
PANC1
  Reaction (CHP anti-proliferation activity): −54%
Fib3 (PPH)
  Reaction (CHP anti-proliferation activity): −14%
Colo320DM
  Reaction (CHP anti-proliferation activity): −11%
WI38
  Reaction (CHP anti-proliferation activity): resistant
JVSO
  Reaction (CHP anti-proliferation activity): −15%
A498
  Reaction (CHP anti-proliferation activity): −6%
BxPC3 [1]
  Reaction (CHP anti-proliferation activity): −41%
MCF-7
  Reaction (CHP anti-proliferation activity): −43%
T47D
  Reaction (CHP anti-proliferation activity): −34%
B607
  Reaction (CHP anti-proliferation activity): −12%
K562
  Reaction (CHP anti-proliferation activity): −11%
A518
  Reaction (CHP anti-proliferation activity): resistant
Me128
  Reaction (CHP anti-proliferation activity): resistant
Capanl
  Reaction (CHP anti-proliferation activity): −66%
SW620(Ccl227)
  Reaction (CHP anti-proliferation activity): −66.4%
CR02
  Reaction (CHP anti-proliferation activity): −13%
BxPC3 [2]; CHP 6.1 μg/ml
  BxPC3 control: 103.5 ± 2.6
BxPC3 [2]; CHP 12.5 μg/ml
  BxPC3 control: 102.6 ± 1.7
BxPC3 [2]; CHP 25 μg/ml
  BxPC3 control: 99.9 ± 3.1
BxPC3 [2]; CHP 50 μg/ml
  BxPC3 control: 99.8 ± 4.3
BxPC3 [2]; CHP 100 μg/ml
  BxPC3 control: 105.2 ± 5.4
